Test [1] has as its target MBP-Dga1pΔ19 fusion protein (Yarrowia lipolytica). The test is described as follows: SEC; Hiload 16/60 Superdex 200 column, 4°C; amylose-purified fractions incubated overnight with lysis buffer (50 mM Tris-HCl pH 7.5, 150 mM NaCl, 5% glycerol, 1 mM EDTA, 1 mM TCEP) with 0.5% N-lauroyl sarcosine before the column; major peak taken as a dimer. For orientation: In gel filtration, larger molecules generally elute earlier.

Test [2] deals with T1, Dga1pΔ85 (Yarrowia lipolytica, UniProt Q6C3R2).
T1 construct: gene YALI0_E32769g; lacks 85 N-terminal residues (incl. putative TM domain) of the 515-residue protein; N-terminal MBP fusion kept, ~90 kDa, pMalc2X, E. coli BL21 (DE3) pLysS; dimer on SEC
T1 sequence (Q6C3R2 entry or part of it, stated change not applied): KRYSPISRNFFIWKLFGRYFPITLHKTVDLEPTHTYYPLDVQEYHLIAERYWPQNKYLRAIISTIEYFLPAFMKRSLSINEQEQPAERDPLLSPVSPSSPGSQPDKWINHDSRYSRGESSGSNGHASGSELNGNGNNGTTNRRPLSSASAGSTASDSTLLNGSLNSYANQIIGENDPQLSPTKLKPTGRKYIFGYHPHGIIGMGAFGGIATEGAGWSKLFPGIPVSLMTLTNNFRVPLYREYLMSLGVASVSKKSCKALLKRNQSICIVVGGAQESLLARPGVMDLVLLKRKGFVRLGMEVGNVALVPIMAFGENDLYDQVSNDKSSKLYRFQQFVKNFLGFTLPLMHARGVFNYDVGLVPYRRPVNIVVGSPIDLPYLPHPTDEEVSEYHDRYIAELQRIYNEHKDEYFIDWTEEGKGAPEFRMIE
The test can be described thus: fluorescent DGAT assay, HPTLC of NBD-TG. It counts as biochemical. The note with it: 1 mM niacin; 100 μM C18:0-CoA, 100 μM NBD-DG, 20 mM MgCl2, Hepes pH 7.6, 31°C; noncompetitive (per cited literature).

In test [3] the target is T2, Dga1pΔ19 (Yarrowia lipolytica, UniProt Q6C3R2).
T2 construct: gene YALI0_E32769g; lacks 19 N-terminal residues of the printed 515-residue protein; N-terminal MBP fusion kept, ~99 kDa, pMalc2X, E. coli BL21 (DE3) pLysS; dimer on SEC
T2 sequence (Q6C3R2 entry or part of it, stated change not applied): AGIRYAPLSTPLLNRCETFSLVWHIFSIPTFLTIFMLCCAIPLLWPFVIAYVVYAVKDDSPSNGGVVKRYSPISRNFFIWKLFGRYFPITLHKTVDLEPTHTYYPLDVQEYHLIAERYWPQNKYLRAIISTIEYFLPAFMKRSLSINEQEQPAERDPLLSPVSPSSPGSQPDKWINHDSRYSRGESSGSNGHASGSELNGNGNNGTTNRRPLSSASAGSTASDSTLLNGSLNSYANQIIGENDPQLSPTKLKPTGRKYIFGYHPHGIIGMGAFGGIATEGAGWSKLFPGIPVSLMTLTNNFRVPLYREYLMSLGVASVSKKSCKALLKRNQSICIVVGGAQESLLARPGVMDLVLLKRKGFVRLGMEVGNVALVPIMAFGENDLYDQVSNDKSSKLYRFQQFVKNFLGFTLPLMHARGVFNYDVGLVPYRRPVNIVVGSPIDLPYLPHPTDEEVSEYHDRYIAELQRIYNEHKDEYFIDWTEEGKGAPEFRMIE
The test is described as follows: fluorescent DGAT assay, HPTLC of NBD-TG. The format is biochemical. The note with it: 1 mM niacin; 100 μM C18:0-CoA, 100 μM NBD-DG, 20 mM MgCl2, Hepes pH 7.6, 31°C; noncompetitive (per cited literature).

The target of test [4] is T1, Dga1pΔ85. The test is described as follows: fluorescent DGAT assay, HPTLC of NBD-TG. It counts as biochemical.
Test [5] addresses T2, Dga1pΔ19. The test is described as follows: fluorescent DGAT assay, HPTLC of NBD-TG. It counts as biochemical. The note with it: acyl donor; 100 μM NBD-DG, 20 mM MgCl2, Hepes pH 7.6, 0.01% tween 20, 31°C.
Test [6] has as its target MBP-Dga1pΔ85 construct (Yarrowia lipolytica). The test can be described thus: SEC; Hiload 16/60 Superdex 200 column, 4°C; amylose-purified fractions incubated overnight with lysis buffer (50 mM Tris-HCl pH 7.5, 150 mM NaCl, 5% glycerol, 1 mM EDTA, 1 mM TCEP) with 0.5% N-lauroyl sarcosine before the column; major peak taken as a dimer.

In turn, “MBP-Dga1pΔ19 fusion protein (domain or fragment)” returned a stoichiometry N in test [1] of 2.

In the case of `O=C(O)c1cccnc1` [niacin], the “% decrease of TG production at 1 mM” value amounted to 99.5% on Dga1pΔ85 [2] and 70% on Dga1pΔ19 [3].

Regarding `CCCCCCCCCCCCCCCCCC(=O)SCCNC(=O)CCNC(=O)[C@H](O)C(C)(C)COP(=O)(O)OP(=O)(O)OC[C@H]1O[C@@H](n2cnc3c(N)ncnc32)[C@H](O)[C@@H]1OP(=O)(O)O` [stearoyl-CoA], the “fluorescent DGAT assay, HPTLC of NBD-TG” value on Dga1pΔ85 [4] (acyl donor, 100 μM NBD-DG, 20 mM MgCl2, Hepes pH 7.6, 0.01% tween 20, 31°C) was “C18:0-CoA was an efficient acyl donor for both enzyme versions”; at Dga1pΔ19 [5] it was “C18:0-CoA was an efficient acyl donor for both enzyme versions”.

Consider `CCCCCCCCCC(=O)O[C@@H](CO)COC(=O)CCCCCCCCCNc1ccc([N+](=O)[O-])c2nonc12` [NBD-DG], for which, on Dga1pΔ85 [4] (acyl acceptor, labelled compound, 100 μM with C18:0-CoA, 20 mM MgCl2, Hepes pH 7.6, 31°C), the “fluorescent DGAT assay, HPTLC of NBD-TG” value is given as “both recombinant enzymes harbored increasing DGAT activities in the presence of various C18:0-CoA concentrations”.

In turn, “MBP-Dga1pΔ85 construct (domain or fragment)” came in with a stoichiometry N in test [6] of 2.

Broadly, the stoichiometry N is a count of units in the complex or per binding partner.

For the origin of these results see publication PMC5079557, “Expression of Soluble Forms of Yeast Diacylglycerol Acyltransferase 2 That Integrate a Broad Range of Saturated Fatty Acids in Triacylglycerols” (PLoS ONE, 2016).
